Reference: patent US9932300B2, “N,N′-diarylurea compounds and N,N′-diarylthiourea compounds as inhibitors of translation initiation” (President and Fellows of Harvard College, priority 2009, dated 2018)

Tested on: eIF2-GTP-Met-tRNAi ternary complex
Experiment: Ternary complex assay (dual luciferase, firefly/renilla ratio) in stable KLN-tTA/pBISA-DL(ATF-4) cells; HTS and hit confirmation
Format: cell-based, mouse
Design: Activity 10 uM / Activity 2.5 uM / Activity 5 uM: unit not given here
Conditions: confirmed hits of the screen (Table 5); for Activity 2.5 uM: compound at 2.5 uM; for Activity 10 uM: compound at 10 uM

CC(=O)[O-].[O-]c1c(Cl)cc(Cl)cc1/C=N/Nc1ccccn1.[Zn+2] [Compound 625863]
Activity 2.5 uM: 3.75 | Activity 10 uM: 3.72

COc1ccc2c(c1)CCc1c(CO)c(COC(=O)NC(C)C)n(C)c1-2 [Compound 627459]
Activity 2.5 uM: 1.68 | Activity 10 uM: 7.21

CCC[CH2][Sn]1([CH2]CCC)[O]c2ccccc2NCC[N]1c1ccccc1O [Compound 628577]
Activity 2.5 uM: 1.45 | Activity 10 uM: 3.06

Oc1ccccc1[N]1CCNc2ccccc2[O][Sn]1([c]1ccccc1)[c]1ccccc1 [Compound 628578]
Activity 2.5 uM: 3.53

C=[CH][Sn]([CH]=C)([S]c1cccc2cccnc12)[S]c1cccc2cccnc12 [Compound 628594]
Activity 2.5 uM: 3.94

COc1cc[c]([Hg][n+]2c[nH]c3[nH]cnc(=S)c32)cc1 [Compound 631943]
Activity 2.5 uM: 6.31

Nc1nc(=S)c2c(nc[n]2[Hg][c]2ccc([N+](=O)[O-])cc2)[nH]1 [Compound 631945]
Activity 2.5 uM: 0.76 | Activity 10 uM: 5.72

Cc1cc[c]([Hg][S]C(=S)NNc2ccccc2)cc1 [Compound 631946]
Activity 2.5 uM: 13.13

COc1ccc(/C=N/Nc2nc(-c3cc4oc(=O)n(C)c4cc3Cl)cs2)cc1OC [Compound 632134]
Activity 2.5 uM: 1.26 | Activity 10 uM: 3.5

[Cl][Ni][Cl].c1ccc(P(CCP(CCP(c2ccccc2)c2ccccc2)CCP(c2ccccc2)c2ccccc2)c2ccccc2)cc1 [Compound 633334]
Activity 2.5 uM: 4.12 | Activity 10 uM: 28.14

F[P-](F)(F)(F)(F)F.[C-]#[O+].[C-]#[O+].[CH]1[CH][CH][CH][CH]1.[Mo].c1ccc(P(CC[As](c2ccccc2)c2ccccc2)CC[As](c2ccccc2)c2ccccc2)cc1 [Compound 633346]
Activity 2.5 uM: 8.05 | Activity 10 uM: 11.64

F[C-](F)C(F)(F)C(F)(F)C(F)(F)C(F)(F)C(F)(F)C(F)(F)F.[CH]1[CH][CH][CH][CH]1.[Co+][I].c1ccc(P(CCP(c2ccccc2)c2ccccc2)c2ccccc2)cc1 [Compound 633992]
Activity 2.5 uM: 13.09

C(=C\P(c1ccccc1)c1ccccc1)/P(c1ccccc1)c1ccccc1.F[C-](F)C(F)(F)C(F)(F)F.F[P-](F)(F)(F)(F)F.[CH]1[CH][CH][CH][CH]1.[Co+2] [Compound 633995]
Activity 2.5 uM: 14.38 | Activity 10 uM: 11.56

F[C-](C(F)(F)F)C(F)(F)F.[CH]1[CH][CH][CH][CH]1.[Co+][I].c1ccc(P(CCP(c2ccccc2)c2ccccc2)c2ccccc2)cc1 [Compound 633997]
Activity 2.5 uM: 17.11 | Activity 10 uM: 12.56

F[C-](F)F.[C-]#[O+].[CH]1[CH][CH][CH][CH]1.[Mo].c1ccc(P(CCP(c2ccccc2)c2ccccc2)c2ccccc2)cc1 [Compound 634000]
Activity 2.5 uM: 1.1 | Activity 10 uM: 12.96

F[C-](C(F)(F)F)C(F)(F)F.F[P-](F)(F)(F)(F)F.[CH]1[CH][CH][CH][CH]1.[Co+2].c1ccc(P(CCP(c2ccccc2)c2ccccc2)c2ccccc2)cc1 [Compound 634014]
Activity 2.5 uM: 11.17 | Activity 10 uM: 12.92

C[Si](C)(C)c1ccc(CC2(Cc3ccc([Si](C)(C)C)cc3)CCNC2)cc1 [Compound 634157]
Activity 2.5 uM: 0.8 | Activity 10 uM: 3.99

F[P-](F)(F)(F)(F)F.[Cl][Co+].c1ccc(P(CCP(CCP(c2ccccc2)c2ccccc2)CCP(c2ccccc2)c2ccccc2)c2ccccc2)cc1 [Compound 634838]
Activity 2.5 uM: 13.01 | Activity 10 uM: 30.9

C[C-]=O.[C-]#[O+].[C-]#[O+].[Mn].c1ccc(P(CCP(c2ccccc2)c2ccccc2)CCP(c2ccccc2)c2ccccc2)cc1 [Compound 634842]
Activity 2.5 uM: 1.71 | Activity 10 uM: 8.37

c1ccc(P(CC[As](c2ccccc2)c2ccccc2)CC[As](c2ccccc2)c2ccccc2)cc1 [Compound 635022]
Activity 2.5 uM: 0.96 | Activity 10 uM: 4.8

[Pt].c1ccc(P(CCP(CCP(c2ccccc2)c2ccccc2)CCP(c2ccccc2)c2ccccc2)c2ccccc2)cc1 [Compound 635030]
Activity 2.5 uM: 1.68 | Activity 10 uM: 71.33

[C-]#[O+].[C-]#[O+].[C-]#[O+].[C-]#[O+].[C-]#[O+].[CH]1[CH][CH][CH][CH]1.[CH]1[CH][CH][CH][CH]1.[Mo].[Mo].c1ccc(P(CCP(c2ccccc2)c2ccccc2)c2ccccc2)cc1 [Compound 635072]
Activity 2.5 uM: 1.59 | Activity 10 uM: 5.58

CCOC(=O)/C(=C\c1ccc(N(C)C)cc1)[Se]c1ccccc1 [Compound 638113]
Activity 2.5 uM: 1.87 | Activity 10 uM: 3.17

C/C(=N/O)c1ccc2c(c1)C(=NO)c1cc(/C(C)=N/O)ccc1-2 [Compound 642485]
Activity 2.5 uM: 1.93 | Activity 10 uM: 3.59

CCOC(=O)C(C(=O)OCC)c1ccc([N+](=O)[O-])o1 [Compound 643139]
Activity 10 uM: 7.511

COc1ccc(C2=NN(C(C)=O)c3nc4ccccc4nc3O2)cc1 [Compound 643713]
Activity 2.5 uM: 2.72 | Activity 10 uM: 4.87

CC1=NN(c2ccccc2)C(=O)C1=C1SCCCS1 [Compound 643762]
Activity 2.5 uM: 1.99 | Activity 10 uM: 3.47

CCC[CH2][Sn]([CH2]CCC)([CH2]CCC)[O]c1cccccc1=O [Compound 644907]
Activity 2.5 uM: 4.97

Nc1nc2c(N)cc(C(F)(F)F)cc2nc1-c1ccccc1 [Compound 645170]
Activity 2.5 uM: 3 | Activity 10 uM: 5.1

CCCCCCN(CCCCCC)C(=S)N/N=C(\C)c1ccccn1 [Compound 647131]
Activity 2.5 uM: 1.96 | Activity 10 uM: 17.42

CC(=O)Nc1ccc(C(O)/C(=N/N)c2nc3ccc(Cl)cc3[nH]c2=O)cc1 (centres unmarked) [Compound 647590]
Activity 2.5 uM: 2.31 | Activity 10 uM: 3.22

CCCN(CCC)c1c([N+](=O)[O-])cc(S(N)(=O)=O)cc1[N+](=O)[O-] [Compound 648479]
Activity 2.5 uM: 2.55 | Activity 10 uM: 3.37

Cc1ccc(C2C(Cl)C(=O)N2n2cnc3ccccc3c2=O)cc1 (centres unmarked) [Compound 650027]
Activity 2.5 uM: 4.2 | Activity 10 uM: 4.42

COc1ccc(/C=C(\C2=NC(=O)CS2)c2nc3ccccc3[nH]2)cc1 [Compound 652047]
Activity 2.5 uM: 1.15 | Activity 10 uM: 3.51

COc1ccc2c3ccc4c(c3n(C)c2c1)C(=O)C=CC4=O [Compound 652257]
Activity 2.5 uM: 3.09 | Activity 10 uM: 8.74

O=c1c([Se]c2coc3ccccc3c2=O)coc2ccccc12 [Compound 652531]
Activity 2.5 uM: 0.71 | Activity 10 uM: 12.9

O=[N+]([O-])[O-].O=[N+]([O-])[O-].[Au].[Au].c1ccc([P-]c2ccccc2)cc1.c1ccc([P-]c2ccccc2)cc1 [Compound 652594]
Activity 2.5 uM: 1.46 | Activity 10 uM: 14.89

O=C1/C(=C/c2ccc(O)c(O)c2)CCC/C1=C\c1ccc(O)c(O)c1 [Compound 652890]
Activity 2.5 uM: 2.23 | Activity 10 uM: 7.57

COc1ccc(-c2nnc(-c3nsc4ccccc34)o2)cc1 [Compound 652917]
Activity 2.5 uM: 2.33 | Activity 10 uM: 3.31

COc1ccc(Nc2nnc(-c3nsc4ccccc34)s2)cc1 [Compound 652924]
Activity 2.5 uM: 1.78 | Activity 10 uM: 3.58

CCN(CC)CCCNc1ncc(C)c2c1c1ccc3c(O)cccc3c1n2C [Compound 653438]
Activity 2.5 uM: 0.755 | Activity 10 uM: 12.32

CCSc1nnc(-c2ccccc2)nc1Cc1ccc(OC)cc1 [Compound 655141]
Activity 2.5 uM: 2.18 | Activity 10 uM: 3.91

O=C1C(c2ccc([N+](=O)[O-])cc2)=C(Cl)C(=O)c2c(O)cccc21 [Compound 656075]
Activity 2.5 uM: 2.33 | Activity 10 uM: 7.97

O=C1C(Cl)=C(c2ccc([N+](=O)[O-])cc2)C(=O)c2c(O)cccc21 [Compound 656076]
Activity 2.5 uM: 4.6 | Activity 10 uM: 17.27

CCN(CC)Cc1cc(Nc2c3ccccc3nc3c2[nH]c2ccccc23)cc(CN(CC)CC)c1O.Cl [Compound 656711]
Activity 2.5 uM: 0.59 | Activity 10 uM: 6.66

Cc1ccc(C2=Nc3cccc4cccc(c34)N2)cc1 [Compound 657189]
Activity 2.5 uM: 2.65 | Activity 10 uM: 3.16

CC(=O)C1C(=O)C(=O)N(c2ccc([N+](=O)[O-])cc2)C1=O.[Na+] (centres unmarked) [Compound 657424]
Activity 2.5 uM: 1.17 | Activity 10 uM: 3.36

COc1ccc(-c2nc(Nc3ccccc3)sc2Cc2sc(Nc3ccccc3)nc2-c2ccc(OC)cc2)cc1 [Compound 658163]
Activity 2.5 uM: 2.63 | Activity 10 uM: 4.46

CCN1CCNc2c3cc(OC)ccc3nc3c([N+](=O)[O-])ccc1c23 [Compound 658354]
Activity 2.5 uM: 0.2379 | Activity 10 uM: 6.609

COc1ccc2nc3c([N+](=O)[O-])ccc4c3c(c2c1)NCCN4CCO [Compound 658355]
Activity 2.5 uM: 0.5 | Activity 10 uM: 8.48

COc1ccc2c(c1)c1c3c(ccc4ncn2c43)N(CCO)CCN=1 [Compound 658358]
Activity 2.5 uM: 0.4 | Activity 10 uM: 20.35

Cl.Cn1c(N)nc(-c2ccc(Cl)cc2)c1SSc1c(-c2ccc(Cl)cc2)nc(N)n1C [Compound 658830]
Activity 2.5 uM: 0.48 | Activity 10 uM: 4.21

CCn1c(O)c(C=Nc2ccccc2)s/c1=N/Nc1nc(C)cs1 [Compound 658916]
Activity 2.5 uM: 2.047 | Activity 10 uM: 3.18

O=C(CC(=O)Nc1ccccc1Cl)NNC(c1cc(N=Nc2ccc(Br)cc2)ccc1O)P(O)O (centres unmarked) [Compound 659608]
Activity 2.5 uM: 1.34 | Activity 10 uM: 3.07

O=C1C=CC(=O)c2c1ccc1c3ccccc3n(-c3cccc([N+](=O)[O-])c3)c21 [Compound 661223]
Activity 2.5 uM: 1.05 | Activity 10 uM: 11.8

Cn1c2ccccc2c2c(-c3ccccc3)cc3c(c21)C(=O)C=CC3=O [Compound 661225]
Activity 2.5 uM: 1.76 | Activity 10 uM: 25.16

[Ru].[SH+]=C([SH2+])N1CCCCC1.[SH+]=C([SH2+])N1CCCCC1 [Compound 662875]
Activity 2.5 uM: 10.55 | Activity 10 uM: 40.72
